Assay results as given in ChEMBL document CHEMBL3885861, “Open TG-GATES”.

Species: Rattus norvegicus
Test: Open TG-GATES - Regimen: Single
Assay type: toxicity, organism-based, Sprague-Dawley
Set-up: regimen Single, gender Male, age 6 weeks
Conditions: in vivo, po, 0 mg/kg, route gavage, dose level Control; for APTT / Bas / Eos / Fbg / Hb / Ht / Lym / MCH / MCHC / MCV / Mono / Neu / PT / Plat / RBC / Ret / WBC: tissue Blood; for KIDNEY_L / KIDNEY_R / KIDNEY_TOTAL: tissue Kidney; for LIVER: tissue Liver; for A/G / ALP / ALT / AST / BUN / CRE / Ca / Cl / DBIL / GLC / IP / LDH / Na / PL / RALB / TBIL / TC / TG / TP / gamma-GTP: tissue Plasma

SMILES: NC(N)=Nc1nc(CSCCC(N)=NS(N)(=O)=O)cs1 [FAMOTIDINE]
- TERMINAL_BW (3 h): 217.3 g
- APTT (3 h): 20.1 s
- Bas (3 h): 0%
- Eos (3 h): 1%
- Fbg (3 h): 209.8 mg/dL
- Hb (3 h): 13.2 g/dL
- Ht (3 h): 37.2%
- Lym (3 h): 64.8%
- MCH (3 h): 22.3 pg
- MCHC (3 h): 35.5%
- MCV (3 h): 62.6 fL
- Mono (3 h): 3.8%
- Neu (3 h): 26.8%
- PT (3 h): 12.5 s
- Plat (3 h): 110.5 x10_4/uL
- RBC (3 h): 593.6 x10_4/ul
- Ret (3 h): 8.2%
- WBC (3 h): 81.2 x10_2/uL
- KIDNEY_L (3 h): 1 g
- KIDNEY_R (3 h): 1 g
- KIDNEY_TOTAL (3 h): 1.9 g
- LIVER (3 h): 10.4 g
- A/G (3 h): 1.7
- ALP (3 h): 809.6 IU/L
- ALT (3 h): 39 IU/L
- AST (3 h): 71 IU/L
- BUN (3 h): 10.8 mg/dL
- CRE (3 h): 0.4 mg/dL
- Ca (3 h): 10.8 mg/dL
- Cl (3 h): 103.2 meq/L
- DBIL (3 h): 0.078 mg/dL
- GLC (3 h): 197.2 mg/dL
- IP (3 h): 9.1 mg/dL
- LDH (3 h): 196.4 IU/L
- Na (3 h): 140.8 meq/L
- PL (3 h): 139 mg/dL
- RALB (3 h): 3.4 g/dL
- TBIL (3 h): 0.1 mg/dL
- TC (3 h): 77.4 mg/dL
- TG (3 h): 55.8 mg/dL
- TP (3 h): 5.4 g/dL
- gamma-GTP (3 h): 1.4 IU/L
- TERMINAL_BW (6 h): 212.9 g
- APTT (6 h): 20 s
- Bas (6 h): 0%
- Eos (6 h): 0.8%
- Fbg (6 h): 218.6 mg/dL
- Hb (6 h): 13.4 g/dL
- Ht (6 h): 37.6%
- Lym (6 h): 79.4%
- MCH (6 h): 22 pg
- MCHC (6 h): 35.7%
- MCV (6 h): 61.7 fL
- Mono (6 h): 2.4%
- Neu (6 h): 15.2%
- PT (6 h): 12.4 s
- Plat (6 h): 119.6 x10_4/uL
- RBC (6 h): 610.2 x10_4/ul
- Ret (6 h): 6.9%
- WBC (6 h): 94.2 x10_2/uL
- KIDNEY_L (6 h): 1 g
- KIDNEY_R (6 h): 1 g
- KIDNEY_TOTAL (6 h): 2 g
- LIVER (6 h): 9.3 g
- A/G (6 h): 1.5
- ALP (6 h): 928.8 IU/L
- ALT (6 h): 32.6 IU/L
- AST (6 h): 64.2 IU/L
- BUN (6 h): 9.2 mg/dL
- CRE (6 h): 0.4 mg/dL
- Ca (6 h): 10.7 mg/dL
- Cl (6 h): 102.6 meq/L
- DBIL (6 h): 0.068 mg/dL
- GLC (6 h): 193.8 mg/dL
- IP (6 h): 9 mg/dL
- LDH (6 h): 193.6 IU/L
- Na (6 h): 140 meq/L
- PL (6 h): 142.8 mg/dL
- RALB (6 h): 3.3 g/dL
- TBIL (6 h): 0.1 mg/dL
- TC (6 h): 80.6 mg/dL
- TG (6 h): 60 mg/dL
- TP (6 h): 5.5 g/dL
- gamma-GTP (6 h): 1 IU/L
- TERMINAL_BW (9 h): 209.9 g
- APTT (9 h): 19.9 s
- Bas (9 h): 0%
- Eos (9 h): 1%
- Fbg (9 h): 228.2 mg/dL
- Hb (9 h): 13.3 g/dL
- Ht (9 h): 36.7%
- Lym (9 h): 65.4%
- MCH (9 h): 22.9 pg
- MCHC (9 h): 36.2%
- MCV (9 h): 63.3 fL
- Mono (9 h): 2.4%
- Neu (9 h): 29%
- PT (9 h): 12.7 s
- Plat (9 h): 118.2 x10_4/uL
- RBC (9 h): 580.8 x10_4/ul
- Ret (9 h): 7.5%
- WBC (9 h): 106.4 x10_2/uL
- KIDNEY_L (9 h): 1 g
- KIDNEY_R (9 h): 1 g
- KIDNEY_TOTAL (9 h): 2 g
- LIVER (9 h): 9.1 g
- A/G (9 h): 1.5
- ALP (9 h): 883.2 IU/L
- ALT (9 h): 28.4 IU/L
- AST (9 h): 56.8 IU/L
- BUN (9 h): 8.8 mg/dL
- CRE (9 h): 0.3 mg/dL
- Ca (9 h): 10.4 mg/dL
- Cl (9 h): 102.8 meq/L
- DBIL (9 h): 0.056 mg/dL
- GLC (9 h): 205.2 mg/dL
- IP (9 h): 9.4 mg/dL
- LDH (9 h): 138.6 IU/L
- Na (9 h): 140 meq/L
- PL (9 h): 133.8 mg/dL
- RALB (9 h): 3.2 g/dL
- TBIL (9 h): 0.1 mg/dL
- TC (9 h): 70.6 mg/dL
- TG (9 h): 46.6 mg/dL
- TP (9 h): 5.4 g/dL
- gamma-GTP (9 h): 0.8 IU/L
- TERMINAL_BW (24 h): 226.6 g
- APTT (24 h): 19.6 s
- Bas (24 h): 0%
- Eos (24 h): 1%
- Fbg (24 h): 232.4 mg/dL
- Hb (24 h): 13.3 g/dL
- Ht (24 h): 37.3%
- Lym (24 h): 78.4%
- MCH (24 h): 22.5 pg
- MCHC (24 h): 35.7%
- MCV (24 h): 63.2 fL
- Mono (24 h): 2.8%
- Neu (24 h): 15.8%
- PT (24 h): 11.9 s
- Plat (24 h): 126.9 x10_4/uL
- RBC (24 h): 590 x10_4/ul
- Ret (24 h): 6.6%
- WBC (24 h): 84.4 x10_2/uL
- KIDNEY_L (24 h): 1.1 g
- KIDNEY_R (24 h): 1.1 g
- KIDNEY_TOTAL (24 h): 2.1 g
- LIVER (24 h): 11 g
- A/G (24 h): 1.5
- ALP (24 h): 1002.2 IU/L
- ALT (24 h): 34.2 IU/L
- AST (24 h): 65.4 IU/L
- BUN (24 h): 13.4 mg/dL
- CRE (24 h): 0.4 mg/dL
- Ca (24 h): 10.7 mg/dL
- Cl (24 h): 102.6 meq/L
- DBIL (24 h): 0.088 mg/dL
- GLC (24 h): 186.4 mg/dL
- IP (24 h): 7.3 mg/dL
- LDH (24 h): 203.2 IU/L
- Na (24 h): 139.4 meq/L
- PL (24 h): 147.2 mg/dL
- RALB (24 h): 3.4 g/dL
- TBIL (24 h): 0.1 mg/dL
- TC (24 h): 81.8 mg/dL
- TG (24 h): 85.6 mg/dL
- TP (24 h): 5.7 g/dL
- gamma-GTP (24 h): 1 IU/L
